In US11040979B2, “Substituted pyrrolo[1,2-b]pyridazines for treating disorders related to KIT and PDGFR” (Blueprint Medicines Corporation, priority 2017, dated 2021) one finds IC50 data, which are given here for four molecules.

Holding throughout (test): Kinase profiling with recombinant enzyme, 33P-ATP filter-binding method
What all share (type): biochemical

For one test, the target named is KIT V559D/T670I (Homo sapiens (Human), UniProt P10721, T670I/V559D). To be noted: c-KIT V559D/T670I, poly[Glu:Tyr] (4:1), ATP (Km) 5 uM; read-out: INH-KITV559D/T670I (exon 13) IC50. The method, then: (§1) KIT, KIT mutant, and PDGFRα mutant kinase profiling was performed with recombinant enzymes including wild-type KIT, KIT V560G, KIT V559D/T670I, V559D/V654A, and PDGFRα D842V. Kinase/substrate pairs were prepared in reaction buffer (20 mM Hepes (pH 7.5), 10 mM MgCl2, 1 mM EGTA, 0.02% Brij35, 0.02 mg/ml BSA, 0.1 mM Na3VO4, 2 mM DTT, 1% DMSO). Compounds were dissolved at 10 mM in 100% DMSO, serial diluted and added to the kinase/substrate mix in final concentrations from 10 uM to 0.5 pM. Compounds were incubated with the recombinant enzymes and substrates at room temperature for 20 minutes with their respective Km for ATP. ^33P-ATP (10 mCi/mL) was added to initiate the reaction. Incubation for two hours at room temperature was followed by spotting onto P81 ion exchange paper and detection of kinase activity by a filter-binding method.
Chain of KIT V559D/T670I (P10721 26-976 V559D/T670I): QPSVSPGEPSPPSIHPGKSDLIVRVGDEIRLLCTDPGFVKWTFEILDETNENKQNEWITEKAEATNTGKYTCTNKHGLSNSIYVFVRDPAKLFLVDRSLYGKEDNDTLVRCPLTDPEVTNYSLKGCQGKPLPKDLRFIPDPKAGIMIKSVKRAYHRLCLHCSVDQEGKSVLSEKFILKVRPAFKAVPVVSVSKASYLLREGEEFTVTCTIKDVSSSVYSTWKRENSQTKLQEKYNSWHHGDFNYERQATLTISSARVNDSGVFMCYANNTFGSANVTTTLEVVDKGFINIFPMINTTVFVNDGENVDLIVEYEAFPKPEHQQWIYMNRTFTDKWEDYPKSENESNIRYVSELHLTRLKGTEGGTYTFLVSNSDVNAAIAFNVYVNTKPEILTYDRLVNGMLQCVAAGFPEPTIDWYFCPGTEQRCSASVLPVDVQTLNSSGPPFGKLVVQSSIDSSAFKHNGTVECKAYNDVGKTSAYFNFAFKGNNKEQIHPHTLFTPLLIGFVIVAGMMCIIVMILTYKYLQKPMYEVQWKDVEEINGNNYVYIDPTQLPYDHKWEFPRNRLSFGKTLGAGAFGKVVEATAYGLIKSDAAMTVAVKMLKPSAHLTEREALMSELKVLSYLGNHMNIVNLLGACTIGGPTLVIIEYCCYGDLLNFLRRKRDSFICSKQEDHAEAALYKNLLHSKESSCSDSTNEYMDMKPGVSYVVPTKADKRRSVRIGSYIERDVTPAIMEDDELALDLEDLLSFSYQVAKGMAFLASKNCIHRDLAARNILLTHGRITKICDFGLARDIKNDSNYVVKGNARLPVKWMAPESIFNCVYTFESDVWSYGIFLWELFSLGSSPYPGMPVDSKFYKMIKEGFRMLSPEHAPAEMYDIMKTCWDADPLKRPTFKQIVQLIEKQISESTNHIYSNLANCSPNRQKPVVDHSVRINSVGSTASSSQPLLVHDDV
(§2) Conditions for Specific Enzyme Assays:
(§3) Data was normalized to 0% and 100% inhibition controls and the IC50 calculated using a 4-parameter curve fit.

Another test has as its target KIT V559D/V654A (Homo sapiens (Human), UniProt P10721, V559D/V654A). To be noted: c-KIT V559D/V654A, poly[Glu:Tyr] (4:1), ATP (Km) 20 uM; read-out: INH-KITV559D/V654A (exon 13) IC50. The procedure:
as §1, §2, §3

In the next test the target is KIT V560G (Homo sapiens (Human), UniProt P10721, V560G). As to conditions: c-KIT V560G, poly[Glu:Tyr] (4:1), ATP (Km) 20 uM; read-out: INH-KITV560G (exon 11) IC50. The method, then:
as §1, §2, §3

The target in another test is PDGFRα D842V (Homo sapiens (Human), UniProt P16234, D842V). As to conditions: poly[Glu:Tyr] (4:1), ATP (Km) 1 uM, read-out: INH-PDGFRα D842V (exon 18) IC50. The procedure:
as §1, §2, §3

Another test concerns the target wild-type KIT (Homo sapiens (Human), UniProt P10721). As to conditions: c-KIT WT, poly[Glu:Tyr] (4:1), ATP (Km) 100 uM; read-out: INH-KITWT IC50. The procedure:
as §1, §2, §3

Chain of KIT V559D/V654A (P10721 26-976 V559D/V654A): as the sequence (P10721 26-976 V559D/T670I) above, with V629A, I645T counted along it
Chain of KIT V560G (P10721 26-976 V560G): as the sequence (P10721 26-976 V559D/T670I) above, with D534V, V535G, I645T counted along it
Chain of PDGFRα D842V (P16234 24-1089 D842V): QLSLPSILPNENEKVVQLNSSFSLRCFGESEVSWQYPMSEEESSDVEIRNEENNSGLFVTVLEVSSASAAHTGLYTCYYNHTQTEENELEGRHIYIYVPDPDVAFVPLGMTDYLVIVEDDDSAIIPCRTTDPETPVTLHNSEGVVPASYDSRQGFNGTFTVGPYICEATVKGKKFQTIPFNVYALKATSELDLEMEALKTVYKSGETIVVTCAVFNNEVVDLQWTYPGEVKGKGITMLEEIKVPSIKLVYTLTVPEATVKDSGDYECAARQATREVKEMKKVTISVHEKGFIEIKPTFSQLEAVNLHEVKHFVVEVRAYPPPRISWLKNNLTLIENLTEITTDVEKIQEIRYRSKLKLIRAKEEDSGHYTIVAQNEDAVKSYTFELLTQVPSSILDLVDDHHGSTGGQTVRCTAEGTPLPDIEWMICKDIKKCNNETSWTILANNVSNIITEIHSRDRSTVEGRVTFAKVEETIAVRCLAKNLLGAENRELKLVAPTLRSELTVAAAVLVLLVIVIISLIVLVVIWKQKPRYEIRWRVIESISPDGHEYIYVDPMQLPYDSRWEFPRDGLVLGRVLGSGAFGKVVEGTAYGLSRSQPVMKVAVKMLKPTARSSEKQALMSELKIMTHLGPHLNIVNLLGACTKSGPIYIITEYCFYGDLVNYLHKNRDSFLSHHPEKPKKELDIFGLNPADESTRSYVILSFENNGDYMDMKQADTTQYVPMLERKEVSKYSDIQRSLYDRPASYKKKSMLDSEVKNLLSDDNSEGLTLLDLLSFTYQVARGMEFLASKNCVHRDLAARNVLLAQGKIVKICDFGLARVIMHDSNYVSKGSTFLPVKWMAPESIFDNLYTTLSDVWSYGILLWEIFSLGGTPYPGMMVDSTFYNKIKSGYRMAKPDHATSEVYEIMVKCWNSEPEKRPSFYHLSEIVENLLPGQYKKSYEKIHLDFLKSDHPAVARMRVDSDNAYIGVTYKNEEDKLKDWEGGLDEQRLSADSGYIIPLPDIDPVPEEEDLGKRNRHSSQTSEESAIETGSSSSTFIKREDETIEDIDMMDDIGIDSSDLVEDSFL
Chain of wild-type KIT (P10721 26-976): as the sequence (P10721 26-976 V559D/T670I) above, with D534V, I645T counted along it

`Cn1cc(-c2cc3c(N4CCN(c5ncc([C@@](C)(N)c6ccc(F)cc6)cn5)CC4)ccnn3c2)cn1` [Compound 1, (S)-1-(4-fluorophenyl)-1-(2-(4-(6-(1-methyl-1H-pyrazol-4-yl)pyrrolo[1,2-b]pyridazin-4-yl)piperazin-1-yl)pyrimidin-5-yl)ethanamine]: the IC50 is 1.01 to 10 nM at KIT V559D/T670I; 1.01 to 10 nM on KIT V559D/V654A; 1.01 to 10 nM on KIT V560G; under 1 nM on PDGFRα D842V; over 100 nM at wild-type KIT.

In the case of `Cn1cc(-c2cc3c(N4CCN(c5ncc([C@@](C)(N)c6ccc(F)cc6)cn5)CC4)c(F)cnn3c2)cn1` [Compound 2, (S)-1-(2-(4-(3-fluoro-6-(1-methyl-11H-pyrazol-4-yl)pyrrolo[1,2-b]pyridazin-4-yl)piperazin-1-yl)pyrimidin-5-yl)-1-(4-fluorophenyl)ethanamine], the IC50 at KIT V559D/T670I was 1.01 to 10 nM; at KIT V559D/V654A it was 10 to 100 nM; on KIT V560G, 10 to 100 nM; on PDGFRα D842V, under 1 nM; on wild-type KIT, over 100 nM.

`Cn1cc(-c2cc3c(N4CCN(c5ncc([C@@](C)(N)c6ccc(F)cc6)cn5)CC4)c(Cl)cnn3c2)cn1` [Compound 3, (S)-1-(2-(4-(3-chloro-6-(1-methyl-1H-pyrazol-4-yl)pyrrolo[1,2-b]pyridazin-4-yl)piperazin-1-yl)pyrimidin-5-yl)-1-(4-fluorophenyl)ethanamine]: the IC50 was 1.01 to 10 nM at KIT V559D/T670I; over 100 nM on KIT V559D/V654A; 10 to 100 nM at KIT V560G; under 1 nM at PDGFRα D842V; over 100 nM at wild-type KIT.

With `Cn1cc(-c2cc3c(N4CCN(c5ncc([C@@](C)(N)c6ccc(F)cc6)cn5)CC4)c(C#N)cnn3c2)cn1` [Compound 4, (S)-4-(4-(5-(1-amino-1-(4-fluorophenyl)ethyl)pyrimidin-2-yl)piperazin-1-yl)-6-(1-methyl-1H-pyrazol-4-yl)pyrrolo[1,2-b]pyridazine-3-carbonitrile], the IC50 was 1.01 to 10 nM at KIT V559D/T670I; 10 to 100 nM on KIT V559D/V654A; 1.01 to 10 nM on KIT V560G; under 1 nM at PDGFRα D842V; over 100 nM at wild-type KIT.
